Test results: patent US6380177B1, “LPA analogs as agonists of the Edg2 LPA receptor” (Atairgin Technologies, Inc., priority 1999, dated 2002)
Entries after “also recorded” stand apart in the source; their conditions may differ.

What was measured:
Edg2 receptor [1] = target: T1, Edg2 receptor (Homo sapiens, UniProt Q92633); conditions: cited from earlier work; for activation of FUS1::lacZ (previously known): yeast expressing the Edg2 receptor, previously known results
T1 construct: expressed in transfected cells; host or cells: Saccharomyces cerevisiae JEY5 + pJE15

Edg2 receptor [2] = target: T1, Edg2 receptor; experiment: FUS1::lacZ reporter assay in yeast expressing the Edg2 receptor; format: cell-based; conditions: for activation of FUS1::lacZ by 18:1 analogs (FIG. 4): 200 μM LPA or LPA analog, 18:1 acyl LPA as 100%
Text: A yeast expressing the Edg2 receptor is one way to avoid such problems of multiple receptors. Edg2 has been functionally expressed in the yeast Saccharomyces cerevisiae and provides a facile system with which to analyze this particular receptor. Edg2 couples to the yeast pheromone response pathway selectively in response to exogenously added LPA and activates two easily assayed reporter genes, lacZ and HIS3, that are fused to the pheromone-inducible FUS1 promoter. […] Although the yeast assay is relatively insensitive to LPA compared with mammalian signaling events (the yeast assay has an E.C.50 of 20 μM), yeast offers the advantage of specificity; the induction of FUS1::lacZ by LPA is absolutely dependent on the Edg2 receptor being expressed.
LacZ assays in response to lysophosphatidic acid and LPA analogs- JEY5+pJE15 was grown on SC media containing either 2% galactose or 2% glucose lacking uracil to an approximate O.D. of 0.1-0.5 prior to the addition of lipid or α-factor. Acyl-LPA chain length analogs; 6:0, 10:0, 14:0, 16:0, 18:0, 18:1 and 24:1 (Avanti Polar Lipids) were stored dissolved in chloroform and dried down under vacuum immediately prior to experiments and resuspended in BBS/EDTA (50 mM NH4HCO3, 104 mM NaCl, 250 μM EDTA2Na pH 7.63) at 20 mM with sonication until the solution was clear. The other analogs that were custom synthesized for this report were stored in 100% ethanol at −20° C., dried and resuspended in BBS/EDTA immediately prior to use. Analogs not having a phosphate were stored in 100% DMSO and added directly to the yeast culture. […] Cells were grown for 7 hours prior to assaying at which time 100 μl of yeast culture were then added to […] assay buffer (60 mM Na2HPO4, 40 mM NaH2PO4, 10 mM KCl, 0.1 mM MgSO4, pH 7.0 plus 2.7 mL β-mercaptoethanol per liter) plus 50 μl 0.1% SDS+three drops Chloroform. Cells were vortexed for 10 seconds and incubated for 5 minutes at 28° C. 200 μl of 4mg/ml o-nitrophenol-β-D-galactopyranoside (ONPG, Sigma) was added and the reaction was incubated 30 minutes at 28° C. The assay was stopped by the addition of 500 μl 1M Na2CO3. Color development was measured at A420 and normalized to A600. Units were expressed as Miller Units. Competition assays between 18:1 acyl-LPA and the short chain analogs were essentially performed in the same manner except that both lipids were added simultaneously and the yeast was allowed to grow for the standard seven-hour time period. ERK immune complex kinase assays- C3H/10T½ cells were cultured in Basal Medium Eagle (BME, Gibco)+10% heat inactivated fetal calf serum until quiescent in 6 cm dishes. Cultures were serum starved for 18 hours in BME and stimulated with LPA or an LPA analog for 5 minutes. Dishes were placed on ice, washed with ice cold PBS and lysed in 500 μL lysis buffer (20 mM Tris pH8.0, 137 mM NaCl, 1mM EGTA, 1% Triton X-100, 10% glycerol, 15 mM MgCl2, 1 mM NaVO4, 50 mM NaF, 1mM Pefabloc, 20 μM Leupeptin, 10 μg/mL Aprotinin). To 200 μg total protein, 2 μL anti-ERK1 and 2 μL anti-ERK2 (Santa Cruz) plus 20 μL protein G-agarose beads (Boehringer-Mannheim, 50% slurry) were added and incubated with continuous rocking for two hours at 4° C. The agarose bead-ERK immune complexes were washed twice with 1mL lysis buffer then once in 1mL kinase buffer (30 mM Tris pH 8.0, 20 mM MgCl2, 2 mM MnCl2) and then drained to dryness with a fine gauge Hamilton syringe. The kinase reaction was started by adding 30 μL kinase buffer containing 2 μg myelin basic protein (MBP, Sigma), 10 μM cold ATP and 2.5 μCi [^32P]γ-ATP (Amersham). The reaction was incubated for 25 minutes at 30° C. and then stopped by the addition of 10 μL hot 4×-sample buffer. The phosphorylated MBP was resolved on a 14% SDS-PAGE gel (Novex), stained, dried and the Coomassie Brilliant Blue-stained band was excise and counted on a liquid scintillation counter (Beckman).

ERK1 and ERK2 = experiment: ERK immune complex kinase assay in C3H/10T½ fibroblasts; format: cell-based, Murine; conditions: C3H/10T½ fibroblasts treated with 10M analogue, stimulated 5 minutes
Protocol: Since Edg2 couples to Gpa1, this receptor could also couple to Gi in mammalian cells as well. […] Murine C3H/10T½ fibroblasts were treated with […] analogue and assayed for induction of ERK½ activity. […] The structural requirements of LPA with respect to ERK activation are quite different from the yeast Edg2 lacZ reporter assay. For example, the hydroxyl on the sn-2 carbon of the glycerol can be substituted with little effect in the Edg2-mediated activation of FUS1::lacZ whereas in ERK activation, loss of this hydroxyl almost completely abolishes activity.
LacZ assays in response to lysophosphatidic acid and LPA analogs- JEY5+pJE15 was grown on SC media containing either 2% galactose or 2% glucose lacking uracil to an approximate O.D. of 0.1-0.5 prior to the addition of lipid or α-factor. […] Color development was measured at A420 and normalized to A600. Units were expressed as Miller Units. […] The phosphorylated MBP was resolved on a 14% SDS-PAGE gel (Novex), stained, dried and the Coomassie Brilliant Blue-stained band was excise and counted on a liquid scintillation counter (Beckman).

ERK = ERK activity in A549 lung carcinoma overexpressing Edg2 mRNA; format: cell-based; conditions: overexpresses Edg2 mRNA
Text: Edg2 is not involved in the activation of the MAPKinase ERK. This is somewhat surprising since Edg2 coupled to the endogenous Saccharomyces G-protein, it was reasonable to conclude that Edg2 may couple to mammalian Gi heterotrimeric G-proteins. If this were true, then Edg2 would activate ERK, which is activated by LPA in a pertusis toxin-dependent manner. However, the SAR of LPA for ERK activation is completely different from the SAR of LPA-mediated activation of FUS1::lacZ and calcium mobilization. It is unlikely that expressing this receptor in yeast has changed its ligand binding characteristics. The somatostatin 2A receptor when expressed in yeast maintains it's binding profiles when compared with mammalian cells.

MDA MB 231 cells [3] = conditions: cited from earlier work
MDA MB 231 cells [4] = conditions: cited from earlier work; remark: listed apart in the source

T1 sequence (Q92633 whole entry): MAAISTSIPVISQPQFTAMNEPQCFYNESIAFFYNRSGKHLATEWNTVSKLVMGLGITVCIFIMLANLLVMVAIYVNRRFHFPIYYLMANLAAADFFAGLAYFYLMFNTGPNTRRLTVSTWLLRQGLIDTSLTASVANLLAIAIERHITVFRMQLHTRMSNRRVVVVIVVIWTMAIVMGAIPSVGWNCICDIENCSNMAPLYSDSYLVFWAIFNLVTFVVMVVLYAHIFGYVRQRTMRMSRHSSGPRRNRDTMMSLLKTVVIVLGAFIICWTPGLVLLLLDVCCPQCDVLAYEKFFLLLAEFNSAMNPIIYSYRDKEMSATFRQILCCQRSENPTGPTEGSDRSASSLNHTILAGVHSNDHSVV

| activation of FUS1::lacZ by 18:1 analogs (FIG. 4) (Edg2 receptor [2]) | Compound | activation of FUS1::lacZ (previously known) (Edg2 receptor [1]) | other results |
| --- | --- | --- | --- |
|  | CCCCCCCCCCCCCCCC(=O)OC[C@@H](O)COP(=O)(O)O [Compound 4] | significant activity |  |
| inactive | CCCCCCCC/C=C\CCCCCCCCOCC(O)COP(=O)(O)O (racemic) [Compound 26, 3-O-Oleyl-rac-glycero-1-phosphate] |  | activation of ERK½ (FIG. 5) (ERK1 and ERK2): can activate ERK almost as well as the ester form |
|  | O-acyl-2-hydroxyl-sn-glycero-3-phosphate [LPA] |  | stimulation of ERK activity (ERK): does not stimulate ERK activity; EC50 (Edg2 receptor [1]; yeast expressing Edg2, FUS1::lacZ reporter, read-out: E.C.50 of the yeast assay): 20 µM |
| inactive | CCCCCCCC/C=C\CCCCCCCCOCC(COP(=O)(O)O)OC (racemic) [Compound 36, 3-O-Oleyl-2-O-methyl-rac-glycero-1-phosphate] |  |  |
| had less lacZ activity | CCCCCCCC/C=C\CCCCCCCC(=O)OCCCOP(=O)(OC)OC [Compound 11, Dimethyl 1-(3-propyl oleoate) phosphate] |  |  |
|  | CCCCCC(=O)OC[C@@H](O)COP(=O)(O)O [Compound 1] | inactive |  |
| inactive | CCCCCCCC/C=C\CCCCCCCCOCCCOP(=O)(OC)OC [Compound 29, Dimethyl 3-oleyloxypropyl-1-phosphate] |  |  |
|  | CCCCCCCCCCCCCCCCCC(=O)OC[C@@H](O)COP(=O)(O)O [Compound 5] | significant activity |  |
| retained some FUS1::lacZ activity | CCCCCCCC/C=C\CCCCCCCC(=O)OCC(Br)COP(=O)(O)O (racemic) [Compound 23, 3-O-Oleoyl-2-deoxy-2-bromo-rac-glycero-1-phosphate] |  |  |
| still retained some lacZ activity | CCCCCCCC/C=C\CCCCCCCC(=O)OCCCO [Compound 10, 3-Hydroxypropyl oleate] |  |  |
|  | CCCCCCCCCCCCCC(=O)OC[C@@H](O)COP(=O)(O)O [Compound 3, reference compound] |  | activation of FUS1::lacZ, dependence on acyl chain length (FIG. 2) (Edg2 receptor [2]; yeast expressing the Edg2 receptor, acyl-LPA chain length analogs): inactive |
| still retained some lacZ activity | CCCCCCCC/C=C\CCCCCCCC(=O)OCC(CO)OC (racemic) [Compound 17, 1-O-Oleoyl-2-O-methyl-rac-glycerol] |  |  |
|  | CCCCCCCC/C=C\CCCCCCCC(=O)OC[C@@H](O)COP(=O)(O)O [Compound 6] | most active |  |
|  | CCCCCCCCCC(=O)OC[C@@H](O)COP(=O)(O)O [Compound 2] | inactive |  |

| Compound | activation of FUS1::lacZ by 18:1 analogs (FIG. 4) (Edg2 receptor [2]) | activation of FUS1::lacZ (previously known) (Edg2 receptor [1]) | other results |
| --- | --- | --- | --- |
| CCCCCCCC/C=C\CCCCCCCC(=O)OCC(COP(=O)(OC)OC)OC (racemic) [Compound 18, Dimethyl 3-O-oleoyl-2-O-methyl-rac-glycero-1-phosphate] | had less lacZ activity |  |  |
| CCCCCCCC/C=C\CCCCCCCC(=O)OCCCOP(=O)(O)O [Compound 12, 1-(3-propyl oleoate) phosphate] | retained some FUS1::lacZ activity; also recorded: increased activity significantly; also recorded: does activate FUS1::lacZ |  | activation of ERK½ (FIG. 5) (ERK1 and ERK2): does not activate ERK; inhibition of cAMP accumulation (MDA MB 231 cells [3]): does not inhibit cAMP accumulation; calcium mobilization (MDA MB 231 cells [4]): only slightly mobilizes calcium |
